The source of these data is patent US11351124B2, “Sustained release of formulations of local anesthetics” (EUPRAXIA PHARMACEUTICALS INC., priority 2015, dated 2022).

Series [1] in a line: Dissolution of ropivacaine crystals in suspension, USP I apparatus. It counts as physicochemical. How it is done:
Prior to assessing intrinsic dissolution of ropivacaine, the kinetics of dissolution of crystals in suspension was assessed using a USP I apparatus with either large (1 L capacity, filled to 500 mL) or small (150 mL) dissolution baths. The stir speed was 50 rpm in the large vessel method and 100 rpm in the small vessel method and temperature was 37° C. The media was PBS with 0.1% SDS. The commercial ropivacaine was dissolved rapidly with greater than 60% of the material dissolved within 30 minutes. A 17 mg sample dissolving in the large vessel reached a plateau within 4 hours, although only approximately 80% of the ropivacaine added to the experiment was accounted for.
Approximately 100-120% of the compound was accounted for in this assay. […] The Y-intercept values of the regression is representative of the magnitude of the “burst”, which was 25× higher for the commercial sample compared to the recrystallized sample. See also FIG. 1A.

The subject of series [2] is postsurgical pain. The following applies: in vivo; cited from earlier work.
Series [3] can be described thus: Solubility of ropivacaine in various aqueous media. In kind it is physicochemical. On the procedure:
As used herein, the aminoamide local anesthetic agents are typically in the free base form, which have lower solubility in an aqueous medium than their salt form (e.g., HCl salt). The low solubility (e.g., less than 1 mg/ml) enables a rapid formation of a saturated solution within the PVA coating or shell.

Series [4] is described as follows: Franz cell diffusion of ropivacaine through PVA membranes. In kind it is physicochemical. The following applies: for Fold Decrease in D: relative to buffer with no membrane. On the procedure:
The diffusion behavior of the encapsulated drug in vivo can be predicted based on diffusion coefficient measured in a Franz cell diffusion system. In particular, diffusion coefficient (D) can be quantified according to Equation 1: [formula] where: • D: Diffusion coefficient (cm^2/s) • L: membrane thickness (cm) • J: flux: (μg×cm^−2×s^−1)=slope (μg/mL/h)×volume (9.8 mL)[…](3600 s/h×A cm^2) • A: surface area of the Franz cell (0.650 cm^2) • ΔC: concentration gradient of ropivacaine (μg/mL or μg/cm^3)=339.98 μg/mL (measured […] fluid concentration)−0 μg/mL (assumed […] concentration) The diffusion of ropivacaine through PVA membranes was measured using a Franz diffusion cell system. The system includes a top donor chamber containing a donor fluid, which is sealed with parafilm during the experiment; and a bottom receptor chamber containing a receptor fluid (9.8 mL of PBS pH 7.3). The donor fluid was prepared in a single batch for use in all diffusion experiments, and consisted of PBS pH 7.3. It was prepared by stirring excess solid ropivacaine in the media for 3 days, and filtering to remove the solids with a 0.22 μm filter. The assayed content was 339.98 μg/m L. The rate of appearance of ropivacaine in the Franz cell receptor fluid (the slope of the concentration versus time plot of the data multiplied by the receptor cell volume, 9.8 mL), and the measured membrane thickness (after hydration), were used to calculate the ropivacaine diffusion coefficient through the membrane, using the formula for Fick's law (Equation 1). The concentration of ropivacaine in the receptor (bottom) chamber was measured at different time points, and the diffusion coefficient was determined from Fick's first law of diffusion. Measured concentrations were converted to total drug transport (μg) by multiplying by the receptor fluid volume (9.8 mL for all experiments). FIGS. 3-5 show the diffusion rate for the first 5 hours for three PVA membranes at various degrees of crosslinking induced by various amounts of citric acid.

The nature of series [5]: Intrinsic dissolution of ropivacaine, uncoated vs coated with PVA membrane (FIG. 2). In kind it is physicochemical. The following applies: PVA membrane Mn=20-200 kDa, 87% hydrolyzed, 12% citric acid, cured at 125° C. for 6 hours.
Where [6] appears, read: USP I, PBS with 0.1% SDS, 37° C.
[7] abbreviates: PVA membrane 87% hydrolysis, Mn 20-220 kDa, 4% citric acid, 125 °C 6 h.
Where [8] appears, read: PVA membrane 87% hydrolysis, Mn 20-220 kDa, 8% citric acid, 125 °C 6 h.
Setting [9] is: PVA membrane 87% hydrolysis, Mn 20-220 kDa, 12% citric acid, 125 °C 6 h.
The mark [10] stands for this setting: PVA membrane 87% hydrolysis, Mn 20-220 kDa, 20% citric acid, 125 °C 6 h.
Where [11] appears, read: PVA membrane 87% hydrolysis, Mn 20-220 kDa, 30% citric acid, 125 °C 6 h.
Where [12] appears, read: PVA membrane 87% hydrolysis, Mn 146-186 kDa, 4% citric acid, 125 °C 6 h.
[13] abbreviates: PVA membrane 87% hydrolysis, Mn 146-186 kDa, 8% citric acid, 125 °C 6 h.
[14] abbreviates: PVA membrane 87% hydrolysis, Mn 146-186 kDa, 12% citric acid, 125 °C 6 h.
The mark [15] stands for this setting: PVA membrane >99% hydrolysis, Mn 90 kDa, 8% citric acid, 125 °C 6 h.
The mark [16] stands for this setting: PVA membrane >99% hydrolysis, Mn 90 kDa, 12% citric acid, 125 °C 6 h.
[17] abbreviates: PVA membrane >99% hydrolysis, Mn 90 kDa, 20% citric acid, 125 °C 6 h.
The mark [18] stands for this setting: PVA membrane >99% hydrolysis, Mn 146-186 kDa, 0% citric acid, 125 °C 6 h.
Where [19] appears, read: PVA membrane >99% hydrolysis, Mn 146-186 kDa, 0% citric acid, 129 °C 3 h.
Setting [20] is: PVA membrane >99% hydrolysis, Mn 146-186 kDa, 0% citric acid, 140 °C 6 h.
The mark [21] stands for this setting: PVA membrane >99% hydrolysis, Mn 146-186 kDa, 4% citric acid, 125 °C 6 h.
[22] abbreviates: PVA membrane >99% hydrolysis, Mn 146-186 kDa, 4% citric acid, 140 °C 6 h.
Where [23] appears, read: PVA membrane >99% hydrolysis, Mn 146-186 kDa, 8% citric acid, 125 °C 6 h.
The mark [24] stands for this setting: PVA membrane >99% hydrolysis, Mn 146-186 kDa, 12% citric acid, 125 °C 6 h.

In brackets after ≈: the same amount, converted by molar mass. Several values for one entry are separate records, joined by “and”; a condition that tells them apart may be missing. Identical values can stand only once.

`CCCN1CCCC[C@H]1C(=O)Nc1c(C)cccc1C` [commercial ropivacaine, ropivacaine]: in series [1] (17 mg sample, large vessel (500 mL, 50 rpm), PBS with 0.1% SDS, 37° C.), the “Time to reach dissolution plateau” value was not above 4 h. The “Ropivacaine added to the experiment accounted for” value in series [1] (17 mg sample, large vessel, at plateau) is listed as “approximately 80%”. Also, the “Material dissolved within 30 minutes” value in series [1] (setting [6]) is “greater than 60%”. Moreover, in series [1] (small vessel apparatus, burst phase within first 30 minutes), the “Magnitude of the burst (Y-intercept of regression), compared to the recrystallized sample” value turned out to be 25 ×.
`CCCCN1CCCCC1C(=O)Nc1c(C)cccc1C` (centres unmarked) [conventional bupivacaine, bupivacaine]: in series [2], the Duration of action was not above 7 h.
On to `CCCN1CCCC[C@H]1C(=O)Nc1c(C)cccc1C` [recrystallized ropivacaine, ropivacaine], for which the “Rate of dissolution slowed as compared to commercial ropivacaine” value in series [1] (FIG. 1A) is “about 10 times”. Further, in series [1] (setting [6]), the “Compound accounted for in this assay” value is 100-120% and the “Material dissolved over the first 6 hours (gradual dissolution)” value came out at 60%.
As for `CCCN1CCCC[C@H]1C(=O)Nc1c(C)cccc1C` [ropivacaine], the solubility in series [3] (PBS + 0.05% SDS, pH 7.4, aqueous with cosolvent or surfactant or cyclodextrin) came out at 254 ± 14 µg/mL; in series [3] (PBS + 68 mg/mL BSA, pH 7.4, plasma or biological fluid) it was 792 ± 111 µg/mL; in series [3] (PBS + 0.1% SDS, pH 7.4, aqueous with cosolvent or surfactant or cyclodextrin), 306 ± 18 µg/mL; in series [3] (PBS + 0.2% SDS, pH 7.4, aqueous with cosolvent or surfactant or cyclodextrin) it was 350 ± 12 µg/mL; in series [3] (aqueous buffer, PBS (pH 7.4)), 254 ± 13 µg/mL (≈ 926 µM). Besides, the “Assayed content of saturated ropivacaine donor fluid” value in series [4] (PBS pH 7.3, excess solid stirred 3 days, filtered 0.22 μm) was 339.98 μg/m L. In addition, in series [4] (PBS, no membrane, D defined in cm^2/s), the “Diffusion of ropivacaine in PBS (diffusion coefficient)” value was 4.97×10^−6. Further, the “D, ropivacaine diffusion coefficient” value in series [4] (setting [7]) is 1.94E−07 cm^2/s and 2.23E−07 cm^2/s; in series [4] (setting [8]), 2.20E−07 cm^2/s and 3.01E−07 cm^2/s; in series [4] (setting [9]), 4.30E−07 cm^2/s and 5.43E−07 cm^2/s; in series [4] (setting [10]), 6.26E−07 cm^2/s and 3.64E−07 cm^2/s; in series [4] (setting [11]) it was 4.88E−07 cm^2/s and 2.82E−07 cm^2/s; in series [4] (setting [12]) it was 2.32E−07 cm^2/s and 2.64E−07 cm^2/s. For the same molecule, the “D, ropivacaine diffusion coefficient” value is 2.30E−07 cm^2/s and 2.93E−07 cm^2/s in series [4] (setting [13]); 3.85E−07 cm^2/s and 2.90E−07 cm^2/s in series [4] (setting [14]); 1.68E−07 cm^2/s and 1.99E−07 cm^2/s in series [4] (setting [15]); 3.59E−07 cm^2/s and 3.41E−07 cm^2/s in series [4] (setting [16]); 2.38E−07 cm^2/s and 2.01E−07 cm^2/s in series [4] (setting [17]); 9.09E−08 cm^2/s and 9.21E−08 cm^2/s in series [4] (setting [18]). Further, the “D, ropivacaine diffusion coefficient” value was 1.47E−07 cm^2/s in series [4] (setting [19]); 1.33E−07 cm^2/s and 1.19E−07 cm^2/s in series [4] (setting [20]); 2.40E−07 cm^2/s and 2.15E−07 cm^2/s in series [4] (setting [21]); 1.97E−07 cm^2/s and 1.44E−07 cm^2/s in series [4] (setting [22]); 2.02E−07 cm^2/s and 1.91E−07 cm^2/s in series [4] (setting [23]); 2.41E−07 cm^2/s and 2.18E−07 cm^2/s in series [4] (setting [24]). Besides, the “Decrease in diffusion coefficient compared to diffusion of ropivacaine in PBS” value in series [4] (PVA membranes 146-186 kDa, >99% hydrolysis, after thermal curing and physical crosslinking) amounted to 50 times. For the same molecule, the “Fold Decrease in D” value in series [4] (setting [7]) was 26 and 22; in series [4] (setting [8]), 23 and 17; in series [4] (setting [9]), 12 and 9; in series [4] (setting [10]), 8 and 14; in series [4] (setting [11]), 10 and 18; in series [4] (setting [12]) it was 21 and 19. In addition, the “Fold Decrease in D” value in series [4] (setting [13]) was 22 and 17; in series [4] (setting [14]), 13 and 17; in series [4] (setting [15]), 30 and 25; in series [4] (setting [16]), 14 and 15; in series [4] (setting [17]), 21 and 25; in series [4] (setting [18]), 55 and 54. In addition, the “Fold Decrease in D” value in series [4] (setting [19]) is 34; in series [4] (setting [20]), 37 and 42; in series [4] (setting [21]) it was 21 and 23; in series [4] (setting [22]), 25 and 34; in series [4] (setting [23]), 25 and 26; in series [4] (setting [24]), 21 and 23. In series [5], the “Intrinsic dissolution compared with ropivacaine coated with PVA membrane” value was “much more rapid”.

The solubility is how much of the substance goes into solution per volume.
